# Key:
# [1] = tested on: MDA-MB-231 tumor; test: MDA-MB-231 xenograft tumor growth in immunodeficient mice; assay type: in vivo; conditions: Tadalafil oral gavage 2 mg/kg once a day; Doxorubicin tail vein 2 mg/kg once a week; 25 days (FIG. 6)
# Description: Immunodeficient mice were seeded with MDA-MB-231 cells respectively. When tumor volumes reached 50-100 mm3, mice were given treatment selected from the following: PBS (Control, Ctrl), Tadalafil, Doxorubicin (DOX), Tadalafil in combination with Doxorubicin (DOX+Tadalafil). Tadalafil was administered by oral gavage (2 mg/kg, once a day) while Doxorubicin was administered by mouse tail vein injection (2 mg/kg, once a week). Body weights of mice and tumor volumes were measured every day for 25 days.
# [2] = biological target: T1, PRMT5 (PRMT5/MEP50 purified protein) (Homo sapiens, UniProt O14744); test: SPR affinity analysis (Biacore T200); assay type: binding
# T1 construct: purchased abcam ab198151
# T1 sequence (O14744 whole entry): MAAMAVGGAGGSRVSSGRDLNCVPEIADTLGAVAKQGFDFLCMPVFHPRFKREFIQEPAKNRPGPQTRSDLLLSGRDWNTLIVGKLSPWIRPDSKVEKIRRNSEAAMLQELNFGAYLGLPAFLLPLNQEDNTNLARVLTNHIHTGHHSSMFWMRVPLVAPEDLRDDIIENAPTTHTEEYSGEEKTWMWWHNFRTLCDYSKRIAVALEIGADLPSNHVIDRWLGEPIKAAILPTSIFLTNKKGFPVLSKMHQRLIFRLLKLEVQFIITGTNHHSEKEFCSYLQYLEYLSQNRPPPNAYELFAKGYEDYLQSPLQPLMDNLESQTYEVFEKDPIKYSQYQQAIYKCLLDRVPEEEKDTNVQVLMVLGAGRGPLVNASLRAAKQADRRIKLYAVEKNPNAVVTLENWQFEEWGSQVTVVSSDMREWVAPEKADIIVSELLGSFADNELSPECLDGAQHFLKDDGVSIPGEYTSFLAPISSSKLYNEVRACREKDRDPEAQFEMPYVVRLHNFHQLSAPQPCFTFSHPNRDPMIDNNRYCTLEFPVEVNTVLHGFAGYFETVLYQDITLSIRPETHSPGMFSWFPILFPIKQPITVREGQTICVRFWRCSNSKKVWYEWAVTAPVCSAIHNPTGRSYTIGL
# T1 sequence (Q9BQA1 whole entry partner): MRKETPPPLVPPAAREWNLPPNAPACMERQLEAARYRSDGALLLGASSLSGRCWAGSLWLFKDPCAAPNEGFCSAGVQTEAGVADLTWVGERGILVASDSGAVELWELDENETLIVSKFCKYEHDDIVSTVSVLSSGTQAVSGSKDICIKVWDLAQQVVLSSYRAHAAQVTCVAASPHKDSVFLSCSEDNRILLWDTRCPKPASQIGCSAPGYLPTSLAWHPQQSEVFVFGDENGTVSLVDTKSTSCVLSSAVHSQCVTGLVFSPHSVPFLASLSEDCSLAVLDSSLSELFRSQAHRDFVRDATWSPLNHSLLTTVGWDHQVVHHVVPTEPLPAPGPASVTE
# Description: Analysis of affinity of Tadalafil for target protein (PRMT5) was carried out using Biacore T200 analysis platform and SPR technology. Tadalafil was obtained from MCE corporation with catalog no: HY-9 0009A (50 mg). PRMT5/MEP50 purified protein was obtained from abcam corporation with catalog no: ab198151 (20 μg). Tadalafil was diluted to a series of concentrations in sequence of: 0.78, 1.56, 3.125, 6.25, 12.5, 25, 50 and 100 (μM).
# [3] = tested on: tumor; test: Later functional experiment (tumor inhibitory effect)
smiles,measurement,setting,value
COc1cccc2c1C(=O)c1c(O)c3c(c(O)c1C2=O)C[C@@](O)(C(=O)CO)C[C@@H]3O[C@H]1C[C@H](N)[C@H](O)[C@H](C)O1 [Doxorubicin],mouse tumor volume / tumor growth,[1],inhibited tumor growth
O=C(O)c1cc(/N=N/c2ccc(S(=O)(=O)Nc3ccccn3)cc2)ccc1O [Sulfasalazine],binding ability to PRMT5,[2]; SPR experiment,lower binding ability to PRMT5
same,tumor inhibitory effect,[3],relatively weak tumor inhibitory effect
CN1CC(=O)N2[C@H](c3ccc4c(c3)OCO4)c3[nH]c4ccccc4c3C[C@@H]2C1=O [Tadalafil],Kd,"[2]; SPR, Biacore T200, Tadalafil 0.78-100 μM",22.7 ± 9.6 µM

# Source: patent US11369602B2, “Use of tadalafil as protein arginine methyltransferase (PRMT5) inhibitor” (Fourth Mil. Med. Univ. of People's Lib. Army, priority 2019, dated 2022)
